The source of these data is article PMC12668138, “First-in-line 3D-printed intravaginal ring for nonhormonal contraception” (Research Square, 2025).

The nature of data set [1]: Saturation solubility in relevant solvents and release media. Type of data set: physicochemical. The conditions noted are these: thermodynamic from solid, read-out: GML Saturation Solubility. How it is done:
Approximately 20 mg samples of GML were weighed into microcentrifuge tubes and 100 μL of solvent (n=3) was subsequently added. Samples were vortexed and assessed visually to determine dissolution progress. As dissolution occurred, an additional 20 mg of GML was added until complete saturation was reached. All samples were then stored, protected from light, overnight to confirm complete saturation. […] The supernatant samples were diluted with MeOH and drug concentration was subsequently analyzed via LC-MS as described above.

Data set [2] deals with sperm. Put plainly: Sander-Cramer assay, 1:6 semen:compound, with recovery. Format: cell-based, human. The conditions noted are these: for MEC after recovery ± SD: 1:6 semen:compound, diluted with 1 mL inhibitor-free media, 60 mins; for MEC ± SD: 30 sec exposure, 1:6 dilution ratio (50 μL semen + 250 μL compound). How it is done: (§1) Semen samples were collected from consented healthy male donors by masturbation after 2–5 days of sexual abstinence. The protocol was approved by the Eastern Virginia Medical School’s Institutional Review Board (IRB) at the Macon & Joan Brock Virginia Health Sciences, Old Dominion University. Semen analysis was performed according to WHO guidelines.[44]
(§2) The highest spermicidal dilution and minimum effective concentration (MEC) for the test compounds were determined using the modified Sander-Cramer (SCr) assay.[45] […] Briefly, 250 μL of test compounds were incubated with 50 μL of semen for 30 sec at room temperature (RT). During the incubation period, each sample was examined under a phase-contrast microscope (E600 Nikon Eclipse, Melville, MY) for the presence of motile sperm. To evaluate the protective effect of seminal plasma, 50 μL of test compounds were incubated with 50 μL of semen (1:1 dilution ratio) for 30 sec at room temperature (RT). If any motile sperm (i.e. progressive, twitching, etc.) were found within 30 seconds, then the dilution was recorded as ‘Failed’. If no motile sperm were found, the dilution was considered as ‘Pass.’ The results from 4–6 independent experiments were combined, and the highest spermicidal dilution and MEC were calculated as MEC=initialconcentration/highestspermicidaldilution and presented as Mean ± SE.
(§3) To see whether the sperm immobilizing effect of the compounds was reversible, 1 mL of warmed Ham’s F-10 media (Millipore Sigma, MA, USA) supplemented with 1% Human Serum Albumin (HSA) (Millipore Sigma, MA, USA) was added to each sample to further dilute the compound concentration and assess the reversibility of the sperm immobilization effect. Sperm were incubated for an additional 60 mins at 37°C. After this sperm “recovery” period, motility was re-evaluated with manual counting and calculated as: %SpermMotility=TotalMotileSperm/TotalMotile+immobileSperm*100.

In data set [3] the test system is sperm. Put plainly: Modified Sander-Cramer assay, 1:1 semen:compound, with recovery. Type of data set: cell-based, human. Particulars: for MEC: 30 sec exposure, 1:1 dilution ratio (50 μL semen + 50 μL compound). How it is done:
as §1, §2, §3

Data set [4] relates to sperm. In words: Time-response sperm motility assay (single compounds, 1:1 dilution). Format: cell-based, human. How it is done: A time-response experiment was conducted to assess the impact of contraceptive compounds on sperm motility at various time points following incubation. Sperm samples were incubated with varying concentrations of LA or GML (1:1 dilution ratio) for 30 secs, 10, 30, 60, and 120 minutes. Concentrations of GML were selected based on the critical micelle concentration (CMC) of 16.4 μg/mL.[43] Each sample was examined under a phase-contrast microscope, and sperm motility was assessed manually.

Data set [5] deals with Human vaginal epithelial cells, VK2/E6E7. Put plainly: In vitro cytotoxicity, MTS assay. Format: cell-based. Particulars: 24 hrs. How it is done: Human vaginal epithelial cells, VK2/E6E7 (ATCC® CRL-2616™), were used to evaluate GML’s effect on cell viability. VK2 cells were propagated in Gibco™ Keratinocyte SFM (1×) media (Cat# 17005042, ThermoFisher Scientific, MA, USA) supplemented with 0.1 ng/mL epidermal growth factor, 50 μg/mL bovine pituitary extract, 0.4 mM CaCl2, and 1% penicillin and streptomycin (P/S; Cat# 15140–122, Gibco). Cells were incubated with varying concentrations of GML for 24 hrs at 37°C. Cell viability was assessed using CellTiter 96® AQueous Non-Radioactive Cell Proliferation (MTS) Assay (Cat# G5421, Promega, WI, USA) per manufacturer instructions.
In general terms: Tetrazolium dyes change colour on reduction, which living cells bring about.

On the set-up of data set [6]: method as in PMID 26585883. Particulars: cited from earlier work.
Data set [7] in a line: Lactic acid titration of simulated vaginal and seminal fluids (pH). Particulars: for pH reached: same LA concentration (24 mM). Type of data set: physicochemical. How it is done: The amount of lactic acid necessary for contraceptive efficacy was estimated by measuring solution pH. Simulated vaginal and seminal fluids, with physiologically-representative buffer capacities, were prepared as previously described by Rastogi et al.[43] Simulated vaginal fluid (SVF) was mixed with seminal fluid simulant (SFS) in a 1:5 ratio to represent potential fluid volumes during intercourse.

Molecules are shown by their SMILES. Values after ≈ are worked out from the molar mass of the structure shown. Values joined by “and” are separate entries in the source; they are usually repeats but may differ in a detail not shown here. Equal values may be shown once. Read-outs that look alike come from different tables or passages of the source.

As to `CCCCCCCCCCCC(=O)OCC(O)CO` (stereo not drawn) [GML, glycerol monolaurate], the solubility at 24 h in data set [1] (acetone, organic solvent or mixture) is 255.2 ± 1.74 mg/mL (≈ 930 mM); in data set [1] (ethanol, organic solvent or mixture, EtOH), 271 ± 18 mg/mL (≈ 988 mM); in data set [1] (methanol, organic solvent or mixture, MeOH) it was 278 ± 45.2 mg/mL (≈ 1010 mM); in data set [1] (simulated vaginal fluid with 2% Solutol, pH 4.2, aqueous with cosolvent or surfactant or cyclodextrin, SVF (w/ 2% solutol)) it was 3.25 ± 0.45 mg/mL (≈ 11.8 mM); in data set [1] (water) it was 4.48 ± 0.12 mg/mL (≈ 16.3 mM). In addition, the “Concentration above which compound visibly precipitated” value in the data set on sperm [2] (0.9% saline) is reported as “above 0.2 mg/mL”. In the data set with sperm [2], the “MEC after recovery ± SD” value is 1.7 ± 0.9 mg/mL and 1.7 ± 0.9^γ mg/mL. Moreover, the “MEC ± SD” value with sperm [2] came to 45 ± 5.5 mg/mL. Moreover, in the data set on sperm [3] (1:1 semen:compound, diluted with 1 mL inhibitor-free media, 60 mins), the MEC after recovery is listed as 1.7 ± 0.9 mg/mL. The MEC in the data set on sperm [3] is recorded as 55 ± 5.8 mg/mL. Also, the “Time to immobilize all sperm” value in the data set with sperm [4] (at 20 mg/mL, 1:1 dilution ratio) stood at 10 min. Besides, the “Concentration completely immobilizing sperm” value in the data set on sperm [4] (incubation 30–120 mins, 1:1 dilution ratio) worked out at 2 mg/mL. Besides, in data set [5], the Concentrations considered non-cytotoxic was ≤ 20 µg/mL. In addition, in data set [5], the “Concentrations significantly decreasing cell viability” value is ≥ 200 µg/mL. In addition, in data set [6], the “Critical micelle concentration (CMC)” value was 16.4 µg/mL.

As for `CC(O)C(=O)O` (stereo not drawn) [LA, lactic acid], the “LA concentration at which mixture pH reached 4.2” value in data set [7] (1:5 mixture of SVF and SFS) was 24 mM and 2.16 mg/mL. In addition, the figures for the pH reached in data set [7] (SSF alone) and in data set [7] (SVF alone) were 3.37 and 3.67, respectively. For the same compound, the “MEC after recovery ± SD” value with sperm [2] stood at 9 mg/mL. Moreover, the “MEC ± SD” value in the data set with sperm [2] is on record as 9 mg/mL. In addition, the MEC is 18 mg/mL in the data set with sperm [3]; 10 mg/mL with sperm [4] (following 10 mins, persisting during 120 mins, 1:1 dilution ratio); 20 mg/mL in the data set on sperm [4] (within 30 sec, 1:1 dilution ratio). Moreover, in the data set with sperm [4] (summary statement), the “Concentration inducing immediate sperm immobilization” value is reported as 10 mg/mL.
